Results: US20210113586A1, “NEW USE AND METHODS OF MODULATING IMMUNE RESPONSES” (DIAMYD MEDICAL AB, priority 2018, published 2021)

Experiments:
responder CD4+ T cells = test: Proliferation of anti-CD3 stimulated GABA responder CD4+ T cells from ND individuals; format: cell-based, human; conditions: Example 1, FIG. 1B; CD4-positive cells from 10 healthy donors; 100 nM GABA
Procedure: (§1) Peripheral Blood Mononuclear cells (PBMCs) are isolated from blood from donors diagnosed with Type-1 diabetes and healthy controls. Alternatively, CD4-positive cells (T-cells) are further isolated from PBMCs by e.g. MACS beads, FACS or similar technology. […] A reasonable replication, such as 3 cultures of each condition, is performed. A normalized proliferation value for each culture is then calculated by a standard proliferation measurement method, such as by CFSE staining or radioactive thymidine incorporation (requiring additional factors be added during culture) or by staining for proliferation markers.
(§2) In the FIG. 1, the proliferation of cells retrieved from 13 T1D subjects and 15 healthy controls were inspected. […] A normalized proliferation index was calculated for each culture.
(§3) The proliferation of freshly isolated human PBMCs or CD4^+ T cells was evaluated with MTT (3-(4,5-Dimethylthiazol-2-yl)-2,5-Diphenyltetrazolium Bromide) assay (Ring et al., 2012). Cells were suspended in complete medium (RPMI 1640 supplemented with 2 mM glutamine, 25 mM HEPES, 10% heat inactivated fetal bovine serum, 100 U/ml penicillin, 10 mg/ml streptomycin, 5 mM R-mercaptoethanol) in a concentration 1 million cells per milliliter. The assay was performed in 96-well plates in duplicates or triplicates, where each well was pre-coated with 3 μg/ml anti-CD3 antibody for 3-5 h at 37° C. Each well was loaded with 100,000 cells. Drugs were added to the wells at the relevant concentrations. The plate was incubated for 68 h at 37° C. (95% O2, 5% CO2) and then, a media-soluble tetrazolium dye MTT was added to a final concentration of 1 mM after which the plate was incubated for additional 4 h. The plate was then centrifuged at 2,000 RPM for 10 min to pellet the insoluble purple formazan crystals. The supernatant culture media was collected, stored at −80° C. and used for analysis of cytokines using the multiplex proximity extension assay (PEA). The formazan crystal pellet was dissolved in DMSO and the plate was read within 10 min using a Multiskan MS plate reader (Labsystems) at 550 nm. The optical density value was used as the proliferation index value. Drugs were purchased from Sigma-Aldrich or Tocris (Bristol, UK).

[1] = system: PBMCs from type 1 diabetic (T1D) patients; conditions: GABA 100 nM
Procedure: as §3
(§4) Plasma samples, and culture media samples that were collected from plate wells at the end of the proliferation assay, were analyzed by multiplex PEA with an Olink Inflammation […] panel, targeting 92 proteins related to inflammation (Olink Proteomics, Uppsala, Sweden) as previously described (Edvinsson et al., 2017, Assarsson et al., 2014, Larsson et al., 2015, Larssen et al., 2017). Briefly, 1 μl of sample (plasma samples or cell culture media samples) or negative control was mixed with 3 μl probe solution containing a set of 92 paires DNA-oligonucleotide-conjugated antibodies. Upon recognition of a target protein by a pair of probes, the DNA oligonucletodies on the antibodies are brought in proximity and hybridize to each other, followed by enzymatic DNA polymerization to form a new DNA molecule. The newly formed DNA molecule is then amplified and quantified using a microfluidic real-time qPCR, BioMark™ HD (Fluidigm, South San Francisco, Calif., USA). The generated quantification cycle (Cq) values are normalized against spiked-in controls to convert Cq values to Normalized Protein eXpression (NPX) value on log2 scale. NPX is an arbitrary unit, which is positively correlated to protein concentration. These NPX data were then converted to linear data, using the formula 2^NPX, prior to further statistical analysis. Limit of detection (LOD) for each protein was defined as three standard deviations above the background. Proteins with levels below LOD were excluded from further data analysis.

[2] = system: PBMCs from nondiabetic (ND) individuals; conditions: GABA 100 nM, normalized to control
Procedure: as §3, §4

[3] = system: non-responder CD4+ T cells; test: Multiplex PEA of cytokines released into culture medium by non-responder CD4+ T cells; format: cell-based, human
Procedure: as §3, §4

[4] = system: non-responder CD4+ T cells; test: Proliferation of anti-CD3 stimulated GABA non-responder CD4+ T cells from ND individuals; format: cell-based, human
Procedure: as §1, §2
The proliferation of freshly isolated human PBMCs or CD4^+ T cells was evaluated with MTT (3-(4,5-Dimethylthiazol-2-yl)-2,5-Diphenyltetrazolium Bromide) assay (Ring et al., 2012). Cells were suspended in complete medium (RPMI 1640 supplemented with 2 mM glutamine, 25 mM HEPES, 10% heat inactivated fetal bovine serum, 100 U/ml penicillin, 10 mg/ml streptomycin, 5 mM R-mercaptoethanol) in a concentration 1 million cells per milliliter. […] The formazan crystal pellet was dissolved in DMSO and the plate was read within 10 min using a Multiskan MS plate reader (Labsystems) at 550 nm. […]

[5] = T1D PBMCs, normalized to control
[6] = GABA 100 nM, non-responder CD4+ T cells, normalized to control
[7] = GABA 500 nM, non-responder CD4+ T cells, normalized to control

NCCCC(=O)O [GABA, gamma-aminobutyric acid]
proliferation in the presence of GABA (responder CD4+ T cells): did proliferate less | 4E-BP1 in culture medium, % Mean [1, 5]: 45.5% | ADA in culture medium, % Mean [1, 5]: 53.4% | AXIN1 in culture medium, % Mean [1, 5]: 62.8% | CASP-8 in culture medium, % Mean [1, 5]: 60.9% | CCL4 in culture medium, % Mean [1, 5]: 85.1% | CCL19 in culture medium, % Mean [1, 5]: 43.8% | CCL20 in culture medium, % Mean [1, 5]: 31.5% | CD244 in culture medium, % Mean [1, 5]: 76.3% | CSF-1 in culture medium, % Mean [1, 5]: 70.5% | CXCL1 in culture medium, % Mean [1, 5]: 52.6% | CXCL5 in culture medium, % Mean [1, 5]: 68.1% | CXCL6 in culture medium, % Mean [1, 5]: 54.0% | CXCL9 in culture medium, % Mean [1, 5]: 45.5% | CXCL10 in culture medium, % Mean [1, 5]: 42.5% | CXCL11 in culture medium, % Mean [1, 5]: 61.4% | EN-RAGE in culture medium, % Mean [1, 5]: 71.1% | Flt3L in culture medium, % Mean [1, 5]: 62.9% | IL-1 alpha in culture medium, % Mean [1, 5]: 43.5% | IL-2RB in culture medium, % Mean [1, 5]: 73.0% | IL-4 in culture medium, % Mean [1, 5]: 117.0% | IL-5 in culture medium, % Mean [1, 5]: 85.3% | IL-6 in culture medium, % Mean [1, 5]: 49.4% | IL-10 in culture medium, % Mean [1, 5]: 61.4% | IL-12B in culture medium, % Mean [1, 5]: 53.3% | IL-13 in culture medium, % Mean [1, 5]: 53.0% | IL-17A in culture medium, % Mean [1, 5]: 58.9% | IL-18R1 in culture medium, % Mean [1, 5]: 63.3% | IL-24 in culture medium, % Mean [1, 5]: 86.9% | LAP TGF-beta-1 in culture medium, % Mean [1, 5]: 67.6% | LIF in culture medium, % Mean [1, 5]: 70.0% | MCP-1 in culture medium, % Mean [1, 5]: 53.0% | MCP-2 in culture medium, % Mean [1, 5]: 35.4% | MCP-3 in culture medium, % Mean [1, 5]: 44.6% | MIP-1 alpha in culture medium, % Mean [1, 5]: 106.2% | MMP-1 in culture medium, % Mean [1, 5]: 78.4% | MMP-10 in culture medium, % Mean [1, 5]: 61.3% | OPG in culture medium, % Mean [1, 5]: 45.1% | OSM in culture medium, % Mean [1, 5]: 69.8% | PD-L1 in culture medium, % Mean [1, 5]: 57.0% | SIRT2 in culture medium, % Mean [1, 5]: 53.5% | STAMP8 in culture medium, % Mean [1, 5]: 53.9% | TGFA in culture medium, % Mean [1, 5]: 61.1% | TNF in culture medium, % Mean [1, 5]: 47.4% | TNFRSF9 in culture medium, % Mean [1, 5]: 71.1% | TNFSF14 in culture medium, % Mean [1, 5]: 69.9% | TRAIL in culture medium, % Mean [1, 5]: 67.0% | TWEAK in culture medium, % Mean [1, 5]: 55.7% | VEGF-A in culture medium, % Mean [1, 5]: 82.1% | μPA in culture medium, % Mean [1, 5]: 86.3% | number of cytokines whose release was increased ([1]; n=13, FIG. 4c): two | AXIN1 in culture medium, % Mean [2]: 82.3% | CCL4 in culture medium, % Mean [2]: 95.3% | CD244 in culture medium, % Mean [2]: 92.5% | CXCL9 in culture medium, % Mean [2]: 81.3% | IL-12B in culture medium, % Mean [2]: 84.8% | IL-18R1 in culture medium, % Mean [2]: 90.7% | LIF in culture medium, % Mean [2]: 88.5% | OPG in culture medium, % Mean [2]: 81.8% | OSM in culture medium, % Mean [2]: 88.1% | PD-L1 in culture medium, % Mean [2]: 87.8% | SIRT2 in culture medium, % Mean [2]: 81.6% | TNF in culture medium, % Mean [2]: 74.1% | TNFB in culture medium, % Mean [2]: 95.7% | TNFRSF9 in culture medium, % Mean [2]: 99.6% | TNFSF14 in culture medium, % Mean [2]: 89.2% | TWEAK in culture medium, % Mean [2]: 86.3% | IL-1 alpha in culture medium, % Mean [3, 6]: 112.8% | MMP-1 in culture medium, % Mean [3, 6]: 124.2% | IL-5 in culture medium, % Mean [3, 7]: 87.2% | PD-L1 in culture medium, % Mean [3, 7]: 120.4% | TGF-alpha in culture medium, % Mean [3, 7]: 109.5% | number of cytokines whose secretion was regulated ([3]; GABA 100 and 500 nM, at each concentration): four | proliferation in the presence of GABA ([4]; Example 1, FIG. 1A, CD4-positive cells from 5 healthy donors, 100 nM GABA): did not proliferate less | decrease of proliferation by GABA ([4]; Example 2, non-responder T cell population): did not decrease
